These results are taken from patent publication US20110294853A1, “Bis Aromatic Compounds for Use in the Treatment of Inflammation” (priority 2008, published 2011).

This experiment has as its target T1, Recombinant human LTC4 synthase (Homo sapiens, UniProt Q16873).
T1 construct: made in house; host or cells: Pichia pastoris ('Piccia pastoralis' [sic])
T1 sequence (Q16873 1-150): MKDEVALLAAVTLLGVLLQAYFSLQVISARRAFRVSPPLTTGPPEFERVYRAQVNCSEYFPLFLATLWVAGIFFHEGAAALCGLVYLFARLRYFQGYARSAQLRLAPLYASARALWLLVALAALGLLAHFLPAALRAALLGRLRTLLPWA
Briefly: In vitro assay of LTC4 synthase inhibition (HPLC or HTRF detection of LTC4). To be noted: inhibitor concentration 10 μM; percentage inhibitions of LTC4. It is filed as biochemical. Here is the method:
In the assay LTC4 synthase catalyses the reaction where the substrate LTA4 methyl ester is converted to the corresponding LTC4 methyl ester. Recombinant human LTC4 synthase is expressed in Piccia pastoralis and the purified enzyme is dissolved in 25 mM Tris-buffer pH 7.8 and stored at −20° C. The assay is performed in phosphate buffered saline (PBS) pH 7.4, supplemented with 5 mM glutathione (GSH). The reaction is terminated by addition of acetonitrile/MeOH/acetic acid (50/50/1). The assay is performed at rt in 96-well plates. Analysis of the formed LTC4 methyl ester is performed with reversed phase HPLC (Waters 2795 utilizing an Onyx Monolithic C18 column). The mobile phase consists of acetonitrile/MeOH/H2O (32.5/30/37.5) with 1% acetic acid pH adjusted with NH3 to pH 5.6, and absorbance measured at 280 nm with a Waters 2487 UV-detector.
The following is added chronologically to each well: • 1. 50 μL assay buffer, PBS with 5 mM GSH. • 2. 0.5 μL inhibitor in DMSO. • 3. 2 μL LTC4 synthase in PBS. The total protein concentration in this solution is 0.025 mg/mL. Incubation of the plate at room temperature for 10 minutes. • 4. 0.5 μL LTA4 methyl ester. Incubation of the plate at rt for 1 min. • 5. 50 μL stop solution. • 80 μL of the incubation mixture is analysed with HPLC.
Alternatively HTRF detection of LTC4 can be used:
In the assay, LTC4 synthase catalyses the reaction where the substrate LTA4 is converted to LTC4. Recombinant human LTC4 synthase is expressed in Piccia pastoralis and the purified enzyme is dissolved in 25 mM Tris-buffer pH 7.8 supplemented with 0.1 mM glutathione (GSH) and stored at −80° C. The assay is performed in phosphate buffered saline (PBS) pH 7.4 and 5 mM GSH in 384-well plates.
The following is added chronologically to each well:
1. 48 μL LTC4 synthase in PBS with 5 mM GSH. The total protein concentration in this solution is 0.5 μg/mL. 2. 1 μL inhibitor in DMSO (final concentration 10 μM). 3. Incubation of the plate at rt for 10 min. 4. 1 μL LTA4 (final concentration 2.5 μM). 5. Incubation of the plate at rt for 5 min. 6. 10 μl of the incubation mixture is analysed using HTRF detection.
Consider `CC(C)(C)c1ccc(C(=O)Nc2ccc(CCc3ccc(NC(=O)c4cccc(C(F)(F)F)c4)c(C(=O)O)c3)cc2C(=O)O)cc1` [2:2, 5-{2-[3-Carboxy-4-(4-tert-butylbenzoylamino)-phenyl]ethyl}-2-(3-trifluoromethylbenzoylamino)benzoic acid], for which the inhibition at 10 µM is 100%.

Take `CCCCc1ccc(C(=O)Nc2ccc(NC(=O)c3ccc(NC(=O)c4ccc(OC(C)C)cc4)cc3)cc2C(=O)O)cc1` [4:1, 2-(4-Butylbenzoylamino)-5-[4-(4-isopropoxy-benzoylamino)benzoyl-amino]-benzoic acid]: the inhibition at 10 µM was found to be 79%.

Take `CCCCc1ccc(S(=O)(=O)Nc2ccc(NS(=O)(=O)c3ccc(Oc4ccccc4OC)cc3)cc2C(=O)O)cc1` [5:4, 2-(4-Butylphenylsulfonamido)-5-(4-(2-methoxy-phenoxy)phenylsulfonamido)benzoic acid]: the inhibition at 10 µM came out at 100%. Next, `O=C(Nc1cccc(Cl)c1)Nc1ccc(-c2ccc(NC(=O)Nc3cccc(Cl)c3)c(C(=O)O)c2)cc1C(=O)O` [Example 1:4, 4,4′-bis(3-(3-chlorophenyl)ureido)biphenyl-3,3′-dicarboxylic acid]: 99%.

Consider `O=C(Nc1ccc(C#Cc2ccc(NC(=O)c3ccc(C(F)(F)F)cc3)c(C(=O)O)c2)cc1)c1cccc(C(F)(F)F)c1` [2:5, 2-(4-Trifluoromethylbenzoylamino)-5-[4-(3-trifluoromethylbenzoylamino)-phenylethynyl]-benzoic acid], for which the inhibition at 10 µM was 89%. Next, `O=C(Nc1ccc(CCc2ccc(NC(=O)c3cccc(C(F)(F)F)c3)c(C(=O)O)c2)cc1C(=O)O)c1ccc(C(F)(F)F)cc1` [2:4, 5-{2-[3-Carboxy-4-(4-trifluoromethyl-benzoylamino)-phenyl]ethyl}-2-(3-trifluoromethylbenzoylamino)benzoic acid]: 98%; `CCCCc1ccc(S(=O)(=O)Nc2ccc(NS(=O)(=O)c3ccc(Oc4ccccc4Cl)cc3)cc2C(=O)O)cc1` [5:3, 2-(4-Butylphenylsulfonamido)-5-(4-(2-chloro-phenoxy)-phenylsulfonamido)benzoic acid]: 98%. Next, `Nc1ccccc1C(=O)Nc1ccc(-c2ccc(NC(=O)c3ccccc3N)c(C(=O)O)c2)cc1C(=O)O` [Example 1:8, 4,4′-bis(2-aminobenzamido)biphenyl-3,3′-dicarboxylic acid]: 100%; `CC(=O)Oc1ccc(C(=O)Nc2ccc(-c3ccc(NC(=O)c4ccc(OC(C)=O)cc4)c(C(=O)O)c3)cc2C(=O)O)cc1` [Example 1:12, 4,4′-bis(4-acetoxybenzamido)biphenyl-3,3′-dicarboxylic acid]: 97%; `CCCCOc1ccc(S(=O)(=O)Nc2ccc(NS(=O)(=O)c3ccc(Oc4ccccc4Cl)cc3)cc2C(=O)O)cc1` [5:5, 2-(4-Butoxyphenylsulfonamido)-5-(4-(2-chloro-phenoxy)-phenylsulfonamido)benzoic acid]: 99%. `CCCCOc1ccc(S(=O)(=O)Nc2ccc(NCc3cccc(Oc4ccc(C(C)(C)C)cc4)c3)cc2C(=O)O)cc1` [6:1, 2-(4-Butoxyphenylsulfonamido)-5-(3-(4-tert-butylphenoxy)benzylamino)benzoic acid]: the inhibition at 10 µM worked out at 100%. Turning to `CCCCOc1ccc(S(=O)(=O)Nc2ccc(NCc3cccc(OCc4ccccc4Cl)c3)cc2C(=O)O)cc1` [6:2, 2-(4-Butoxyphenylsulfonamido)-5-(3-(2-chlorobenzyloxy)benzylamino)benzoic acid], the inhibition at 10 µM came out at 100%.

`Cc1ccc(S(=O)(=O)Nc2ccc(-c3ccc(NS(=O)(=O)c4ccc(C)cc4)c(C(=O)O)c3)cc2C(=O)O)cc1` [Example 1:9, 4,4′-bis(4-methylphenylsulfonamido)biphenyl-3,3′-dicarboxylic acid]: the inhibition at 10 µM worked out at 89%. Next, `O=C(Nc1ccc(CCc2ccc(NC(=O)c3ccc(C(F)(F)F)cc3)c(C(=O)O)c2)cc1)c1cccc(C(F)(F)F)c1` [2:3, 2-(4-Trifluoromethylbenzoylamino)-5-{2-[4-(3-trifluoromethylbenzoylamino)-phenyl]-ethyl}benzoic acid]: 85%; `O=C(O)c1cc(-c2ccc(NS(=O)(=O)c3ccccc3)c(C(=O)O)c2)ccc1NS(=O)(=O)c1ccccc1` [Example 1:2, 4,4′-bis(phenylsulfonamido)biphenyl-3,3′-dicarboxylic acid]: 92%. Next, `O=C(Cc1ccc(Cl)cc1)Nc1ccc(-c2ccc(NC(=O)Cc3ccc(Cl)cc3)c(C(=O)O)c2)cc1C(=O)O` [Example 1:7, 4,4′-bis(2-(4-chlorophenyl)acetamido)biphenyl-3,3′-dicarboxylic acid]: 100%; `CCCCc1ccc(C(=O)Nc2ccc(OCc3ccc(NC(=O)c4cccc(Cl)c4)c(C(=O)O)c3)cc2C(=O)O)cc1` [3:1, 2-(4-Butylbenzoylamino)-5-[3-carboxy-4-(3-chlorobenzoylamino)benzyloxy]-benzoic acid]: 100%; `COc1ccc(C(=O)Nc2ccc(CCc3ccc(NC(=O)c4cccc(C(F)(F)F)c4)c(C(=O)O)c3)cc2C(=O)O)cc1` [2:1, 5-{2-[3-Carboxy-4-(4-methoxybenzoylamino)phenyl]ethyl}-2-(3-trifluoromethylbenzoylamino)benzoic acid]: 87%. Next, `CCCCc1ccc(C(=O)Nc2ccc(NC(=O)c3ccc(NC(=O)c4ccccc4)cc3)cc2C(=O)O)cc1` [4:2, 5-(4-Benzoylaminobenzoylamino)-2-(4-butylbenzoylamino)benzoic acid]: 96%. As to `O=C(Nc1ccc(COc2ccc(NC(=O)c3cccc(Cl)c3)c(C(=O)O)c2)cc1C(=O)O)c1cccc(Cl)c1` [3:2, 2-(3-Chlorobenzoylamino)-5-[3-carboxy-4-(3-chlorobenzoylamino)-benzyloxy]-benzoic acid], the inhibition at 10 µM came to 100%. Regarding `CCCCc1ccc(S(=O)(=O)Nc2ccc(NS(=O)(=O)c3ccc(Oc4ccccc4)cc3)cc2C(=O)O)cc1` [Example 5:2, 2-(4-Butylphenylsulfonamido)-5-(4-phenoxyphenylsulfonamido)-benzoic acid], the inhibition at 10 µM worked out at 100%.

As to `O=C(Nc1ccc(-c2ccc(NC(=O)c3ccccc3)c(C(=O)O)c2)cc1C(=O)O)c1ccccc1` [Example 1:11, 4,4′-bis(benzamido)biphenyl-3,3′-dicarboxylic acid], the inhibition at 10 µM is 95%. Next, `O=C(O)c1cc(-c2ccc(NC(=O)c3cccc4ccccc34)c(C(=O)O)c2)ccc1NC(=O)c1cccc2ccccc12` [Example 1:10, 4,4′-bis(1-naphthamido)biphenyl-3,3′-dicarboxylic acid]: 98%; `CC(C)(C)c1ccc(C(=O)Nc2ccc(-c3ccc(NC(=O)c4ccc(C(C)(C)C)cc4)c(C(=O)O)c3)cc2C(=O)O)cc1` [Example 1:6, 4,4′-bis(4-tert-butylbenzamido)biphenyl-3,3′-dicarboxylic acid]: 100%. Next, `CCCCc1ccc(C(=O)Nc2ccc(NC(=O)c3ccc(NS(=O)(=O)c4cccc(Cl)c4C)cc3)cc2C(=O)O)cc1` [4:3, 2-(4-Butylbenzoylamino)-5-[4-(3-chloro-2-methylbenzenesulfonylamino)-benzoylamino]-benzoic acid]: 100%; `O=C(Nc1ccc(-c2ccc(NC(=O)c3cccc(Cl)c3)c(C(=O)O)c2)cc1C(=O)O)c1cccc(Cl)c1` [Example 1:3, 4,4′-bis(3-chlorobenzamido)biphenyl-3,3′-dicarboxylic acid]: 88%.

Turning to `O=C(O)c1cc(-c2ccc(NS(=O)(=O)c3cccnc3)c(C(=O)O)c2)ccc1NS(=O)(=O)c1cccnc1` [Example 1:5, 4,4′-bis(pyridine-3-sulfonamido)biphenyl-3,3′-dicarboxylic acid], the inhibition at 10 µM turned out to be 69%. Next, `O=C(O)c1cc(NS(=O)(=O)c2ccc(Oc3ccccc3)cc2)ccc1NS(=O)(=O)c1ccc(OC(F)(F)F)cc1` [5:1, 5-(4-Phenoxyphenylsulfonamido)-2-(4-(trifluoromethoxy)phenylsulfonamido)benzoic acid]: 100%.
